# Assay results: patent publication US20250122190A1, “HALOGEN-SUBSTITUTED PYRIDAZINONE COMPOUND AND APPLICATION THEREOF” (MEDSHINE DISCOVERY INC., priority 2021, published 2025)
# Read-outs that look alike come from different tables or passages of the source.
# Key:
# [1] = Rat group tissue distribution test; type: in vivo, SD male rats; settings: intragastric, SD rats, n = 3; for concentration at 1 h / concentration at 4 h / concentration at 12 h: male, Sprague Dawley, rat, oral, read-out: Average drug concentration
# Excerpt: In this study, SD male rats were selected as the test animals, and the LC/MS/MS method was used to quantitatively determine the drug concentration at different time points in the plasma, cerebrospinal fluid, brain, liver, and kidney of the test compounds administered orally to evaluate the tissue distribution of the test drugs in the rats.
# Experimental materials: Sprague Dawley (SD) rats (male, 200-300 g, 7-10 weeks old, Beijing Vital River).
# A clear solution or suspension of the test compounds was administered intragastrically into SD rats (fasted) (vehicle: 5% DMSO/10% Kolliphor® HS 15/85% water). […] The mixture was vortexed thoroughly and centrifuged at 3200 g, 4° C. for 10 minutes to obtain the plasma. The cerebrospinal fluid (about 0.02 mL) was collected. The brain, liver, and kidney were collected, rinsed with pre-cooled physiological saline, dried with paper, and then homogenated in a ratio of 1:4 (1 g of tissue: 4 mL of 15 mM phosphate-buffered physiological saline/MeOH (2:1)). The LC-MS/MS method was used to determine the drug concentration, and the Phoenix WinNonlin 6.3 pharmacokinetic software was used to calculate the relevant pharmacokinetic parameters by the non-compartmental model linear logarithmic trapezoidal method.
# [2] = In vivo PK studies, intravenous injection; settings: rat, plasma, male SD rats; for Vd: read-out: Vdss
# Experimental: Male SD rats were used as test animals. After intravenous injection, the blood drug concentration of the compounds was determined and the pharmacokinetic behavior was evaluated.
# Three healthy adult male SD rats were selected. The test compounds were mixed with an appropriate amount of a vehicle of the intravenous injection group and prepared into a 0.5 or 1 mg/mL clear solution, which was filtered with a […] microporous filter membrane for later use. After intravenous administration to the rats at 0.5 or 1 mg/kg, whole blood was collected at 0.083, 0.25, 0.5, 1, 2, 4, 8, 24 hours after administration and placed in EDTA-K2 anticoagulant tubes, and the mixture was vortexed thoroughly and centrifuged at 3200 g, 4° C. for 10 minutes to obtain the plasma. The LC-MS/MS method was used to determine the drug concentration, and the Phoenix WinNonlin 6.3 pharmacokinetic software was used to calculate the relevant pharmacokinetic parameters by the non-compartmental model linear logarithmic trapezoidal method. • Vehicle 1:10% DMSO/10% Kolliphor® HS 15/80% (20% sulfobutyl-β-cyclodextrin); • Vehicle 2:10% DMSO+20% polyoxyethylenated castor oil+70% water; • Vehicle 3:5% DMSO+10% Kolliphor® HS 15+85% physiological saline; • Vehicle 4:10% DMSO+60% polyethylene glycol 400+30% (10% aqueous hydroxypropyl-β-cyclodextrin solution).
# [3] = test system: rat models of hypertensive renal disease; assay: Pharmacodynamic study in DOCA-NaCl induced hypertensive renal disease model; type: in vivo, male SD rats
# Excerpt: PD and pharmacodynamic studies on the compounds of the present disclosure in male SD rat models of hypertension induced with deoxycorticosterone acetate-sodium chloride (DOCA-NaCl).
# Prior to commencing the procedure, 7-8 weeks old male SD rats were allowed one week acclimatization. On the day of surgery, the table of the surgical area was disinfected with a disinfectant, and the rats were anesthetized with 2%-5% isoflurane and fixed on the table. The abdominal hair was removed and the surgical skin was disinfected. The skin and abdominal wall were cut open to expose the right kidney. The arteries and veins near the renal hilum were ligated. After it was confirmed that there were no bleeding points, the renal blood vessels and surrounding ligaments were bluntly separated and the right kidney was removed. After it was confirmed that there were no bleeding points, the abdominal wall muscle and skin were sutured. After the rats woke up, they were returned to the cage and observed. The rats were injected subcutaneously with meloxicam injection once a day for 3 consecutive days for pain relief.
# One week after unilateral kidney removal, the animals were randomly divided into vehicle group, low dose group and high dose group according to body weight/blood pressure. The drinking water of animals in all groups was changed to an aqueous solution containing 1% sodium chloride+0.2% potassium chloride. […]
smiles,measurement,setting,value
O=c1[nH]ncc(N2CCc3c(nc(CO)nc3Sc3ccc(F)cc3C(F)(F)F)C2)c1Cl [Compound WX012],Average drug concentration,"[1]; Brain, 12 h",BQL
same,concentration at 1 h,[1]; Brain,282 nM
same,concentration at 4 h,[1]; Brain,373 nM
same,concentration at 1 h,[1]; Kidney,2630 nM
same,concentration at 4 h,[1]; Kidney,3440 nM
same,concentration at 12 h,"[1]; Kidney, 12 h",276 nM
same,concentration at 1 h,[1]; Liver,5120 nM
same,concentration at 4 h,[1]; Liver,5820 nM
same,concentration at 12 h,"[1]; Liver, 12 h",570 nM
same,concentration at 1 h,[1]; Plasma,773 nM
same,concentration at 4 h,[1]; Plasma,1080 nM
same,concentration at 12 h,"[1]; Plasma, 12 h",82.7 nM
same,AUC(0-t),"[2]; 1 mg/kg, 1 mpk",3.33 µM·h
same,clearance,"[2]; 1 mg/kg, 1 mpk",10.1 mL/min/kg
same,half-life,"[2]; 1 mg/kg, 1 mpk",2.31 h
same,Vd,"[2]; 1 mg/kg, 1 mpk",1.62 L/kg
O=c1[nH]ncc(N2CCc3c(ncnc3Sc3ccc(F)cc3C(F)(F)F)C2)c1Cl [Compound WX002],urinary albumin level,"[3]; 30 mg/kg and 60 mg/kg intragastrically once a day for 28 days, vs vehicle control group",significantly reduce
same,expression of urinary Rac1,"[3]; low and high dose, intragastrically once a day for 28 days, vs vehicle group",dose-dependently reduce
same,AUC(0-t),"[2]; 1 mg/kg, 1 mpk",1.97 µM·h
same,clearance,"[2]; 1 mg/kg, 1 mpk",18.2 mL/min/kg
same,half-life,"[2]; 1 mg/kg, 1 mpk",1.83 h
same,Vd,"[2]; 1 mg/kg, 1 mpk",2.28 L/kg
O=c1[nH]ncc(N2CCc3c(ncnc3Oc3ccc(F)cc3C(F)(F)F)C2)c1Br [Compound WX009],AUC(0-t),"[2]; 0.5 mg/kg, 0.5 mpk",2.38 µM·h
same,clearance,"[2]; 0.5 mg/kg, 0.5 mpk",6.52 mL/min/kg
same,half-life,"[2]; 0.5 mg/kg, 0.5 mpk",2.59 h
same,Vd,"[2]; 0.5 mg/kg, 0.5 mpk",1.37 L/kg
COCc1nc2c(c(Oc3ccc(F)cc3C(F)(F)F)n1)CCN(c1cn[nH]c(=O)c1Cl)C2 [Compound WX011],AUC(0-t),"[2]; 1 mg/kg, 1 mpk",4.05 µM·h
same,clearance,"[2]; 1 mg/kg, 1 mpk",8.29 mL/min/kg
same,half-life,"[2]; 1 mg/kg, 1 mpk",1.46 h
same,Vd,"[2]; 1 mg/kg, 1 mpk",1.06 L/kg
O=c1[nH]ncc(N2CCc3c(ncnc3Oc3ccc(F)cc3Br)C2)c1Cl [Compound WX004],AUC(0-t),"[2]; 1 mg/kg, 1 mpk",8.26 µM·h
same,clearance,"[2]; 1 mg/kg, 1 mpk",4.6 mL/min/kg
same,half-life,"[2]; 1 mg/kg, 1 mpk",2.02 h
same,Vd,"[2]; 1 mg/kg, 1 mpk",0.77 L/kg
CC(F)(F)c1cc(F)ccc1Oc1ncnc2c1CCN(c1cn[nH]c(=O)c1Cl)C2 [Compound WX010],AUC(0-t),"[2]; 1 mg/kg, 1 mpk",4.75 µM·h
same,clearance,"[2]; 1 mg/kg, 1 mpk",7.81 mL/min/kg
same,half-life,"[2]; 1 mg/kg, 1 mpk",1.73 h
same,Vd,"[2]; 1 mg/kg, 1 mpk",1.13 L/kg
Nc1nc2c(c(Sc3ccc(F)cc3C(F)(F)F)n1)CCN(c1cn[nH]c(=O)c1Cl)C2 [Compound WX013],concentration at 1 h,[1]; Brain,139 nM
same,concentration at 4 h,[1]; Brain,197 nM
same,concentration at 12 h,"[1]; Brain, 12 h",86 nM
same,concentration at 1 h,[1]; Kidney,1260 nM
same,concentration at 4 h,[1]; Kidney,1470 nM
same,concentration at 12 h,"[1]; Kidney, 12 h",590 nM
same,concentration at 1 h,[1]; Liver,2610 nM
same,concentration at 4 h,[1]; Liver,3360 nM
same,concentration at 12 h,"[1]; Liver, 12 h",945 nM
same,concentration at 1 h,[1]; Plasma,536 nM
same,concentration at 4 h,[1]; Plasma,716 nM
same,concentration at 12 h,"[1]; Plasma, 12 h",272 nM
same,AUC(0-t),"[2]; 1 mg/kg, 1 mpk",9.13 µM·h
same,clearance,"[2]; 1 mg/kg, 1 mpk",3.94 mL/min/kg
same,half-life,"[2]; 1 mg/kg, 1 mpk",2.65 h
same,Vd,"[2]; 1 mg/kg, 1 mpk",0.88 L/kg
